In patent publication US5719287A, “Intermediates for inhibitors of HIV protease and method of preparation thereof” (Eli Lilly and Company, priority 1995, dated 1998):

Biological target: T1, HIV-1 protease (Human immunodeficiency virus type 1 group M subtype B, UniProt P04585)
T1 construct: Purified HIV-1 protease was obtained as described below; made in house; host or cells: E. coli K12 L507/pHP10D (NRRL B-18560)
Assay: biochemical
Conditions: for IC50: read-out: Fluorescence Assay IC50 (converted)
Procedure: N^α -Biotin-[…]Ne-FITC)-OH
The purified peptide was labeled as follows with a fluorescent marker at the C-terminal end for use in the assay. N^α -Biotin-Gly-Ser-Gln-Asn-Tyr-Pro-lle-Val-Gly-Lys-OH (1.206 g, 0.936 mmoles) was dissolved in 100 mL of 0.1M sodium borate, pH 9.5 with stirring. Then, 3 g of fluorescein isothiocyanate (7.7 mmol) was dissolved in 15 mL dimethyl sulfoxide and the solution added to the reaction in 10 equal portions over the course of a two hour period. The reaction was allowed to proceed for a further one hour after the final addition had been made. The pH of the solution was adjusted to 3 with 5N HCl. A precipitate formed which was removed from the reaction by centrifugation.
Fluorescence HIV-1 Protease Inhibitor Assay Procedure.
To each well of a round bottom, 96-well plate is added 20 μl of the Enzyme Solution followed by 10 μl of the compound to be evaluated in 20% aqueous DMSO. Purified HIV-1 protease was obtained as described below. The solution is incubated for one hour at room temperature and then 20 μl of a solution of the substrate N^α -Biotin-[…]N^e -FITC)-OH, in MES-ALB buffer (1.5 μl/ml) is added to each well. The solutions are incubated for 16 hours at room temperature and thereafter to each well is added 150 μl of MES-ALB buffer.
To each well of a 96-well Pandex plate is added 25 μl of the Avidin Coated Beads Solution. Next, 25 μl of the diluted incubation solutions, described above, are added to each well of the Pandex plate. The solutions are mixed well and the plates are loaded into a Pandex® machine, washed, evacuated and read. Sample detection was performed by excitation at 485 nm and reading the resulting epifluorescence at 535 nm.
A culture of E. coli K12 L507/pHP10D was grown to mid-log phase at 32° C. in LB media containing 12.5 μg/ml tetracycline. The cultivation temperature was quickly elevated to 40° C. to induce gene expression, and the cells were allowed to grow for 2.5 hours at this temperature before the culture was quickly chilled on ice. The cells were centrifuged and the cell pellet was resuspended in 20 ml 50 mmol MES buffer (pH 6.0) containing 1 mmol EDTA, 1 mmol DTT, 1 mmol PMSF, and 10% glycerol (Buffer A). Cells were lysed by sonication using a Fischer Model 300 Dismembrator and a microtip probe. […] Enzymatic activity was measured by HPLC using the synthetic peptide SQNYPIV as described in Margolin et al., Biochem. Biophys. Res. Commun., 167, 554-560 (1990); the production of the pl peptide (SQNY) was measured.
Active fractions were pooled, made 1.2M in ammonium sulfate, and applied to a hexyl agarose column (2.0×18 cm) equilibrated in Buffer A containing 1.2M ammonium sulfate. The sample, in 125 ml (1.85 mg/ml), was loaded at a flow rate of 1 ml/min at 4° C. […] The column was then washed isocratically in Buffer A for 120 min. Active fractions were pooled, concentrated to 10 ml using an Amicon stirred cell with a YM-10 membrane, and applied at 1 ml/min to a MonoS cation exchange column (1.0×10 cm) equilibrated in Buffer A. After washing isocratically for 30 min, protease was eluted using a linear gradient of 0-0.45M NaCl in Buffer A over 40 min followed by an isocratic wash with Buffer A containing 0.45M NaCl over 30 min. Chromatography was performed at 25° C.
Pooled active fractions were concentrated to 200 ul using an Amicon stirred cell and a YM-10 membrane, and the protease was then applied to a Superose 6 size exclusion column equilibrated in Buffer A containing 0.1M NaCl. The column was washed isocratically in this buffer at a flow rate of 0.5 ml/min.

An IC50 of 4.18 nM was found for `CC(C)(C)NC(=O)c1ccccc1C[C@@H](O)[C@H](Cc1ccccc1)NC(=O)[C@H](CC(N)=O)NC(=O)c1cc2ccccc2[nH]1` [Example 21, [1S-(1R*, 4R*. 5S*)]-N-(1-(2-amino-2-oxoethyl)-2-oxo-3-aza-4-phenylmethyl-5-hydroxy-6-(2-(1-t-butylamino-1-oxomethyl)phenyl)hexyl)-2-indolyl carboxamine] in this work.

An IC50 of 12.5 nM was found for `CC(C)(C)NC(=O)c1ccccc1C[C@@H](O)[C@H](Cc1ccccc1)NC(=O)[C@H](CC(N)=O)NC(=O)c1ccccc1` [Example 28, [1S-(1R*, 4R*, 5S*)]-N-(1-(2-amino-2-oxoethyl)-2-oxo-3-aza-4-phenylmethyl-5-hydroxy-6-(2-(1-t-butylamino-1-oxomethyl)phenyl)hexyl)phenyl carboxamide] in this work.

An IC50 of 3.45 nM was found for `CC(C)(C)NC(=O)c1ccccc1C[C@@H](O)[C@H](Cc1ccccc1)NC(=O)[C@H](CC(N)=O)NC(=O)c1ccc2ccccc2c1` [Example 19, [1S-(1R*, 4R*, 5S*)]-N-(1-(2-amino-2-oxoethyl)-2-oxo-3-aza-4-phenylmethyl-5-hydroxy-6-(2-(1-t-butylamino-1-oxomethyl)phenyl)hexyl)-2-naphthyl carboxamide] in this work.

An IC50 of 0.782 nM was found for `COc1cc(C(=O)N[C@@H](CC(N)=O)C(=O)N[C@@H](Cc2ccccc2)[C@H](O)Cc2ccccc2C(=O)NC(C)(C)C)nc2ccccc12` [Example 64, [1S-(1R*, 4R*, 5S*) ]-N-(1-(2-amino-2-oxoethyl)-2-oxo-3-aza-4-phenylmethyl-5-hydroxy-6-(2-(1-t-butylamino-1-oxomethyl)phenyl)hexyl)-4-methoxyquinolin-2-yl carboxamide] in this work.

An IC50 of 1.12 nM was found for `Cc1cc(C(=O)N[C@@H](CC(N)=O)C(=O)N[C@@H](Cc2ccccc2)[C@H](O)Cc2ccccc2C(=O)NC(C)(C)C)nc2ccccc12` [Example 26, [1S-(1R*, 4R*, 5S*)]-N-(1-(2-amino-2-oxoethyl)-2-oxo-3-aza-4-phenylmethyl-5-hydroxy-6-(2-(1-t-butylamino-1-oxomethyl)phenyl)hexyl)-4-methylquinolin-2-yl carboxamide] in this work.

An IC50 of 1.15 nM was found for `CC(C)(C)NC(=O)c1ccccc1C[C@@H](O)[C@H](Cc1ccccc1)NC(=O)[C@H](CC(N)=O)NC(=O)c1cnc2ccccc2n1` [Example 20, [1S-(1R*, 4R*, 5S*)]-N-(1-(2-amino-2-oxoethyl)-2-oxo-3-aza-4-phenylmethyl-5-hydroxy-6-(2-(1-t-butylamino-1-oxomethyl)phenyl)hexyl)-2-quinoxalinyl carboxamide] in this work.

An IC50 of 7.73 nM was found for `Cc1ccc(C[C@@H](O)[C@H](Cc2ccccc2)NC(=O)[C@H](Cc2c[nH]cn2)NC(=O)c2ccc3ccccc3n2)c(C(=O)NC(C)(C)C)c1` [Example 67, [1S-(1R*, 4R*, 5S*)]-N-(1-(4-imidazolylmethyl)-2-oxo-3-aza-4-phenylmethyl-5-hydroxy-6-(2-(1-t-butylamino-1-oxomethyl)-4-methylphenyl)-4-hexyl)-2-quinolinyl carboxamide] in this work.

An IC50 of 10.7 nM was found for `CC(C)(C)NC(=O)c1ccccc1C[C@@H](O)[C@H](Cc1ccccc1)NC(=O)[C@H](CC(N)=O)NC(=O)c1cc2ccccc2s1` [Example 22, [1S-(1R*, 4R*, 5S*)]-N-(1-(2-amino-2-oxoethyl)-2-oxo-3-aza-4-phenylmethyl-5-hydroxy-6-(2-(1-t-butylamino-1-oxomethyl)phenyl)hexyl)-2-benzo[b]thienyl carboxamide] in this work.

An IC50 of 0.785 nM was found for `CC(C)(C)NC(=O)c1ccccc1C[C@@H](O)[C@H](Cc1ccccc1)NC(=O)[C@H](CC(=O)NCc1c[nH]c2ccccc12)NC(=O)c1ccc2ccccc2n1` [Example 70, [1S-(1R*, 4R*, 5*)]-N-(1-(2-(N-indol-3-ylmethyl)amino)-2-oxoethyl)-2-oxo-3-aza-4-phenylmethyl-5-hydroxy-6-(2-(1-t-butylamino-1-oxomethyl)phenyl)hexyl)-2-quinolinyl carboxamide] in this work.

An IC50 of 5.06 nM was found for `CCC(C)[C@H](NC(=O)N(C)Cc1ccc2ccccc2n1)C(=O)N[C@@H](Cc1ccccc1)[C@H](O)Cc1ccccc1C(=O)NC(C)(C)C` (stereo partly drawn) [Example 39, [2R-(2R*, 3S*, 6S*)]-N-t-butyl-2-(2-hydroxy-3-phenylmethyl-4-aza-5-oxo-6-(1-methylpropyl)-7-aza-8-oxo-8-(N-methyl-N-quinolin-2-ylmethylamino)octyl)benzamide] in this work.

An IC50 of 2.13 nM was found for `CC(C)(C)NC(=O)c1ccccc1C[C@@H](O)[C@H](Cc1ccccc1)NC(=O)[C@H](CC(=O)O)NC(=O)c1ccc2ccccc2n1` [Example 43, [1S-(1R*, 4R*, 5S*)]-N-(1-(2-hydroxy-2-oxoethyl)-2-oxo-3-aza-4-phenylmethyl-5-hydroxy-6-(2-(1-t-butylamino-1-oxomethyl)phenyl)hexyl)-2-quinolinyl carboxamide] in this work.

An IC50 of 1.92 nM was found for `Cc1ccc(C(=O)NC(C)(C)C)c(C[C@@H](O)[C@H](Cc2ccccc2)NC(=O)[C@H](CC(N)=O)NC(=O)c2ccc3ccccc3n2)c1` [Example 65, [1S-(1R*, 4R*, 5S*)]-N-(1-(2-amino-2-oxoethyl)-2-oxo-3-aza-4-phenylmethyl-5-hydroxy-6-(2-(1-t-butylamino-1-oxomethyl)-5-methylphenyl)hexyl)-2-quinolinyl carboxamide] in this work.

An IC50 of 1060 nM was found for `CC(C)(C)NC(=O)c1ccccc1C[C@@H](O)[C@H](Cc1ccccc1)NC(=O)[C@H](CC(N)=O)NC(=O)C1Cc2ccccc2CN1` (single isomer, unassigned) [Example 36, [1S-(1R*, 4R*, 5S*)]-N-(1-(2-amino-2-oxoethyl)-2-oxo-3-aza-4-phenylmethyl-5-hydroxy-6-(2-(1-t-butylamino-1-oxomethyl)phenyl)hexyl)-3-(1,2,3,4-tetrahydroisoquinolinyl) carboxamide] in this work.

With `CC(C)(C)NC(=O)c1ccccc1CC(O)C(Cc1ccccc1)NC(=O)C(CC(N)=O)NC(=O)c1cc(C(C)(C)C)c2ccccc2n1` (stereo not drawn) [Example 66, [1S-(1R*, 4R*, 5S*)]-N-(1-(3-amino-2-oxoethyl)-2-oxo-3-aza-4-phenylmethyl-5-hydroxy-6-(2-(1-t-butylamino-1-oxomethyl)phenyl)hexyl)-4-(2,2-dimethylethyl)quinolin-2-yl carboxamide] the “Fluorescence Assay IC50” value (purified HIV-1 protease, MES-ALB buffer pH 5.5, 1 h preincubation, 16 h with substrate, room temperature, IC50 values for Examples 2-70 are standardized relative to Ex 1) was 1.5 ng/mL.

An IC50 of 50.8 nM was found for `CC(C)(C)C(=O)Nc1ccccc1C[C@@H](O)[C@H](Cc1ccccc1)NC(=O)[C@H](CC(N)=O)NC(=O)c1ccc2ccccc2n1` [Example 18, [1S-(1R*, 4R*, 5S*)]-N-(1-(2-amino-2-oxoethyl)-2-oxo-3-aza-4-phenylmethyl-5-hydroxy-6-(2-(2,2-dimethyl-1-oxopropylamino)phenyl)hexyl)-2-quinolinyl carboxamide] in this work.

An IC50 of 38.9 nM was found for `CC(C)(C)NC(=O)c1ccccc1C[C@@H](O)[C@H](Cc1ccccc1)NC(=O)[C@H](CCC(N)=O)NC(=O)c1ccc2ccccc2c1` [Example 56, [1S-(1R*, 4R*, 5S*)]-N-(1-(3-amino-3-oxopropyl) -2-oxo-3-aza-4-phenylmethyl-5-hydroxy-6-(2-(1-t-butylamino-1-oxomethyl)phenyl)hexyl)-2-naphthyl carboxamide] in this work.

An IC50 of 14.9 nM was found for `CC(C)(C)NC(=O)c1ccccc1C[C@@H](O)[C@H](CC1CCCCC1)NC(=O)[C@H](CC(N)=O)NC(=O)c1ccc2ccccc2n1` [Example 51, [1S-(1R*, 4R*. 5S*)]-N-(1-(2-amino-2-oxoethyl)-2-oxo-3-aza-4-cyclohexylmethyl-5-hydroxy-6-(2-(1-t-butylamino-1-oxomethyl)phenyl)hexyl)-2-quinolinyl carboxamide] in this work.
